US10500286B2, “CCK2R-drug conjugates” (priority 2015, dated 2019)
Where two headings read alike, the source gives them in different places.

What was measured:
HEK-CCK2R cells [1] = assay: In vitro study of conjugates versus competitor, [3H]thymidine incorporation; type: cell-based
Experimental: (§1) CCK2R-positive HEK-CCK2R cells were seeded in 12-well Falcon plates and allowed to form nearly confluent monolayers overnight in RPMI/HIFCS. Each well then received increasing concentrations of CCK2R targeted conjugates (EC1812 or EC1868)+/−10 μM of CCK2R binding competitor (Re-EC1786 or Re-EC1825). Cells were pulsed for 2 h at 37° C., rinsed with medium, and then chased in fresh medium up to 72 h. Spent medium was aspirated and replaced with medium containing [^3H]thymidine. Following a 2 h incubation, cells were washed with PBS and then treated with 5% trichloroacetic acid. The trichloroacetic acid was aspirated and cells were solubilized in 0.25 N sodium hydroxide. Each solubilized sample were transferred to scintillation vials containing Ecolume scintillation cocktail and counted in a liquid scintillation counter. Final results were expressed as the percentage of [^3H]thymidine incorporation relative to untreated controls and IC50 values calculated using GraphPad Prism software.

HEK-CCK2R tumor cells = assay: Antitumor activity in HEK-CCK2R tumor model; type: in vivo, mice; details: 2 μmol/kg
Experimental: (§2) Female Balb/c nu/nu mice were fed ad libitum with 2918 irradiated Teklad Global 18% Rodent Diet for the duration of the experiment. HEK-CCK2R tumor cells were inoculated subcutaneously at the right flank of each mouse. Mice were dosed through the lateral tail vein under sterile conditions in a volume of 200 μL of phosphate-buffered saline (PBS).
Growth of each s.c. tumor was followed by measuring the tumor two times per week. Tumors were measured in two perpendicular directions using Vernier calipers, and their volumes were calculated as 0.5×L×W^2, where L=measurement of longest axis in mm and W=measurement of axis perpendicular to L in mm.
Treatment with 2 μmol/kg of EC1947 (Sulfated CCK8-Tubulysin B SMDC), three times a week for two weeks produced maximal anti-tumor activity with 80% cures and 20% CR's. In comparison, EC1868 (CCK8-PEG3-Tubulysin B SMDC) and EC1873 (CCK8-PEG12-Tubulysin B SMDC) at the same dose and schedule produced 100% CR's and 80% CR's/20% PR's, respectively.

HEK-CCK2R cells [2] = type: cell-based; details: 2 h pulse at 37 C, chase up to 72 h, [3H]thymidine incorporation relative to untreated controls
Experimental: as §1, with “(n=4).” for “(EC1812 or EC1868)+/−10 μM of CCK2R binding competitor (Re-EC1786 or Re-EC1825).”

[3] = Body weight of mice bearing subcutaneous HEK-CCK2R tumors during treatment; type: in vivo; details: 2 μmol/kg, TIW×2 weeks
Experimental: (▪) control; (▴) EC1873; (●) EC1868; (∘) EC1947.
as §2

[4] = three times a week for two weeks

Row | Structure (SMILES) | cytotoxic activity on HEK-CCK2R, in words (HEK-CCK2R cells [1]) | CR, number of animals, second figure of {PR, CR, cure} (HEK-CCK2R tumor cells; TIW×2 weeks, n=5) | CR's (HEK-CCK2R tumor cells; [4]) | IC50 (HEK-CCK2R cells [2]) | weight loss [3] | cures (HEK-CCK2R tumor cells; [4]) | PR's (HEK-CCK2R tumor cells; [4]) | IC50 (HEK-CCK2R cells [1]; + 10 μM competitor Re-EC1786, read-out: IC50 in presence of Re-EC1786) | IC50 (HEK-CCK2R cells [1]; conjugate alone, read-out: IC50) | competition of activity by excess Re-EC1786, in words (HEK-CCK2R cells [1]; excess Re-EC1786)
1 | CCCC(=O)OCN(C(=O)[C@@H](NC(=O)[C@H]1CCCCN1C)C(C)CC)[C@H](C[C@@H](OC(C)=O)c1nc(C(=O)N[C@@H](Cc2ccc(O)cc2)C[C@H](C)C(=O)NNC(=O)OCCSSC[C@H](NC(=O)[C@H](CC(=O)O)NC(=O)[C@@H](N)CNC(C)=O)C(=O)NCCOCCOCCOCCC(=O)N[C@@H](CC(=O)O)C(=O)N[C@@H](Cc2ccc(O)cc2)C(=O)N[C@@H](CCSC)C(=O)NCC(=O)N[C@@H](Cc2c[nH]c3ccccc23)C(=O)N[C@@H](CCSC)C(=O)N[C@@H](CC(=O)O)C(=O)N[C@@H](Cc2ccccc2)C(N)=O)cs1)C(C)C (some centres unmarked) [EC1868] | potent, competeable cytotoxic activity | 5 | 100% | 0.2 nM | do not induce weight loss |  |  |  |  | 
2 | CCCC(=O)OCN(C(=O)[C@@H](NC(=O)[C@H]1CCCCN1C)C(C)CC)[C@H](C[C@@H](OC(C)=O)c1nc(C(=O)N[C@@H](Cc2ccc(O)cc2)C[C@H](C)C(=O)NNC(=O)OCSSC[C@H](NC(=O)[C@H](CC(=O)O)NC(=O)[C@@H](N)CNC(C)=O)C(=O)NCCOCCOCCC(=O)N[C@@H](CC(=O)O)C(=O)N[C@@H](Cc2ccc(OS(=O)(=O)O)cc2)C(=O)N[C@@H](CCSC)C(=O)NCC(=O)N[C@@H](Cc2c[nH]c3ccccc23)C(=O)N[C@@H](CCSC)C(=O)N[C@@H](CC(=O)O)C(=O)N[C@@H](Cc2ccccc2)C(N)=O)cs1)C(C)C (some centres unmarked) [EC1947] |  |  | 20% | 0.9 nM | do not induce weight loss | 80% |  |  |  | 
3 | CCCC(=O)OCN(C(=O)[C@@H](NC(=O)[C@H]1CCCCN1C)C(C)CC)[C@H](C[C@@H](OC(C)=O)c1nc(C(=O)N[C@@H](Cc2ccc(O)cc2)C[C@H](C)C(=O)NNC(=O)OCCSSC[C@H](NC(=O)[C@H](CC(=O)O)NC(=O)[C@@H](N)CNC(C)=O)C(=O)NCCOCCOCCOCCOCCOCCOCCOCCOCCOCCOCCOCCOCCC(=O)N[C@@H](CC(=O)O)C(=O)N[C@@H](Cc2ccc(O)cc2)C(=O)N[C@@H](CCSC)C(=O)NCC(=O)N[C@@H](Cc2c[nH]c3ccccc23)C(=O)N[C@@H](CCSC)C(=O)N[C@@H](CC(=O)O)C(=O)N[C@@H](Cc2ccccc2)C(N)=O)cs1)C(C)C (some centres unmarked) [EC1873] |  |  | 80% | 2.8 nM | do not induce weight loss |  | 20% |  |  | 
4 | CCCC(=O)OCN(C(=O)[C@@H](NC(=O)[C@H]1CCCCN1C)C(C)CC)[C@H](C[C@@H](OC(C)=O)c1nc(C(=O)N[C@@H](Cc2ccc(O)cc2)C[C@H](C)C(=O)NNC(=O)OCCSSC[C@H](NC(=O)[C@H](CCC(=O)NC[C@@H](O)[C@H](O)[C@@H](O)[C@@H](O)CO)NC(=O)[C@H](CCC(=O)O)NC(=O)[C@H](CCC(=O)NC[C@@H](O)[C@H](O)[C@@H](O)[C@@H](O)CO)NC(=O)[C@H](CCC(=O)O)NC(=O)CCCCCCCNC(=O)c2cccc(NC(=O)N[C@@H]3CN(C4CCCCC4)c4ccccc4N(CC(=O)C(C)(C)C)C3=O)c2)C(=O)O)cs1)C(C)C (some centres unmarked) [EC1812] | relatively inactive |  |  |  |  |  |  | 262 nM | 225 nM | not competeable
